What all share (format): cell-based
One assay concerns the target T1, SLC1A2 (EAAT2) (Homo sapiens, UniProt P43004).
T1 construct: expressed in transfected cells; host or cells: Xenopus laevis oocytes (cRNA injection)
Nature of the assay: TEVC in oocytes expressing glutamate transporter. To be noted: 10 µM L-glu current, read-out: IC50, block of glutamate current. As for the experimental part: BPOHP activity was evaluated against the glutamate transporters paralogs within the SLC1A gene family (SLC1A 1–3) as well as at neutral amino acid transporters that share common ligand substrates with the SLC1 family including SLC38A1,2, and 4 (ATA1, ATA2, ATA3) and heteromeric transporters SLC7A10+SLC3A2 (asc-1/4f2). […] Finally, radiolabeled [^3H]D-serine uptake was used to assess the electroneutral SLC7A10+SLC3A2 transporter, in which 10 µM BPOHP had no effect (Figure S3).
(§1) Uptake was halted by washing 3 times with 4 °C ND96 buffer. Oocytes were then lysed in 0.1% Triton X-100, and radioactivity was counted via liquid scintillation. Dose response curves were generated by fitting fractional inhibition (I) to the expression I = Imax × [inhibitor]/([inhibitor] + IC50).
Two-electrode voltage clamp (TEVC) transporter currents were recorded with a GeneClamp 500 amplifier and Digidata 1320A analog–digital interface (Molecular Devices, San Jose, CA, USA). […] Data were acquired with Axograph (v1.7.6) and LabChart (v7) and analyzed with Kaleidagraph software (v4.1) (Synergy, Reading, PA, USA). Uncoupled anion currents associated with the transport of substrate and block of SLC1A4 or SLC1A5 mediated leak conductance were recorded in the presence of Ringer with 50% substitution of NaCl by NaSCN to amplify the non-transported anion conductance. […]

The next assay has as its target T2, SLC1A5 (Mus musculus, UniProt P51912).
T2 construct: expressed in transfected cells; host or cells: Xenopus laevis oocytes (cRNA injection)
T2 sequence (P51912 1-553): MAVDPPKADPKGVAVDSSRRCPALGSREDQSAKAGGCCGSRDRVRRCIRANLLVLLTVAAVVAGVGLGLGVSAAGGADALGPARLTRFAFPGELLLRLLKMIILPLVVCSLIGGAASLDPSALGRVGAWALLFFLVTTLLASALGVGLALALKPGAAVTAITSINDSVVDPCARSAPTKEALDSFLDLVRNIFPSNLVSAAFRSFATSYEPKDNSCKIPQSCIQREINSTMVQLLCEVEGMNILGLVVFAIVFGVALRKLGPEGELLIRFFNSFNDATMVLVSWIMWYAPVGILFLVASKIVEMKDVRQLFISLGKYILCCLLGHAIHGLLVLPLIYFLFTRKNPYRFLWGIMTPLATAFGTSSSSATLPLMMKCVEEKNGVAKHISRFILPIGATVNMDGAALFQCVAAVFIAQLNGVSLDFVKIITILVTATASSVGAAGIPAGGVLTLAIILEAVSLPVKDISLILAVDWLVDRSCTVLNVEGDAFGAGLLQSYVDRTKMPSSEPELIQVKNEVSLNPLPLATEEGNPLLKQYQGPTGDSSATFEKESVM
Kind of assay: [3H]L-alanine heteroexchange (trans-stimulation) in preloaded oocytes. Particulars: 3 µM BPOHP, 1 mM L-alanine. As for the experimental part:
as §1

Another assay deals with T3, SLC1A1 (EAAT3) (Homo sapiens, UniProt P43005).
T3 construct: expressed in transfected cells; host or cells: Xenopus laevis oocytes (cRNA injection)
T3 sequence (P43005 1-524): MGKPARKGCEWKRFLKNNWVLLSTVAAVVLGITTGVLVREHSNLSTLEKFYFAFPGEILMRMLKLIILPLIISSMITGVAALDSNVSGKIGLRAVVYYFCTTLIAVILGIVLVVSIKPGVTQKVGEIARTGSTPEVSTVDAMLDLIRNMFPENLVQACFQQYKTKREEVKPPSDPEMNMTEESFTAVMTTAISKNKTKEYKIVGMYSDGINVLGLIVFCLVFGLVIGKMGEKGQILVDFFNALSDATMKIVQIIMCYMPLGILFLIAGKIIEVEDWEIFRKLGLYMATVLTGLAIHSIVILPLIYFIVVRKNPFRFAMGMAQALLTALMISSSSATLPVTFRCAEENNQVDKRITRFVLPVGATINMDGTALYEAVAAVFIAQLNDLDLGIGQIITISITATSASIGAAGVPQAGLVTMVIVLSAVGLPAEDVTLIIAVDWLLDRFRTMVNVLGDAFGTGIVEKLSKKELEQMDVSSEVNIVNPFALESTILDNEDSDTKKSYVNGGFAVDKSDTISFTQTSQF
Nature of the assay: TEVC in oocytes expressing glutamate transporter. To be noted: EAAT3 (SLC1A1); 10 µM L-glu current, TEVC; read-out: IC50, block of glutamate current. Here is the method:
(§2) Additionally, 4-HP applied at 1 mM was used to assess activity at the glutamate transporters SLC1A3 or SLC1A1.
(§3) BPOHP activity was evaluated against the glutamate transporters paralogs within the SLC1A gene family (SLC1A 1–3) as well as at neutral amino acid transporters that share common ligand substrates with the SLC1 family including SLC38A1,2, and 4 (ATA1, ATA2, ATA3) and heteromeric transporters SLC7A10+SLC3A2 (asc-1/4f2).
as §1
(§4) Two-electrode voltage clamp (TEVC) transporter currents were recorded with a GeneClamp 500 amplifier and Digidata 1320A analog–digital interface (Molecular Devices, San Jose, CA, USA). Electrodes (0.2–1.0 MΩ) were filled with 3M KCl and the recording chamber was grounded with an agar bridge. Data were acquired with Axograph (v1.7.6) and LabChart (v7) and analyzed with Kaleidagraph software (v4.1) (Synergy, Reading, PA, USA). Uncoupled anion currents associated with the transport of substrate and block of SLC1A4 or SLC1A5 mediated leak conductance were recorded in the presence of Ringer with 50% substitution of NaCl by NaSCN to amplify the non-transported anion conductance.
(§5) Figure SM-2 TEVC from oocytes expressing SLC1A1-3 transporters.
(§6) (1 picture or pasted object on this page, not shown here)

Another assay addresses T4, SLC1A3 (EAAT1) (Homo sapiens, UniProt P43003).
T4 construct: expressed in transfected cells; host or cells: Xenopus laevis oocytes (cRNA injection)
Kind of assay: TEVC in oocytes expressing glutamate transporter. Particulars: EAAT1 (SLC1A3); 10 µM L-glu current, TEVC; read-out: IC50, block of glutamate current. As for the experimental part:
as §2, §3, §1, §4, §5, §6

Values joined by “and” are separate entries in the source; they are usually repeats but may differ in a detail not shown here. Identical values can stand only once.

As usually defined, the IC50 is the concentration at which inhibition is half-maximal.

T4 sequence (P43003 whole entry): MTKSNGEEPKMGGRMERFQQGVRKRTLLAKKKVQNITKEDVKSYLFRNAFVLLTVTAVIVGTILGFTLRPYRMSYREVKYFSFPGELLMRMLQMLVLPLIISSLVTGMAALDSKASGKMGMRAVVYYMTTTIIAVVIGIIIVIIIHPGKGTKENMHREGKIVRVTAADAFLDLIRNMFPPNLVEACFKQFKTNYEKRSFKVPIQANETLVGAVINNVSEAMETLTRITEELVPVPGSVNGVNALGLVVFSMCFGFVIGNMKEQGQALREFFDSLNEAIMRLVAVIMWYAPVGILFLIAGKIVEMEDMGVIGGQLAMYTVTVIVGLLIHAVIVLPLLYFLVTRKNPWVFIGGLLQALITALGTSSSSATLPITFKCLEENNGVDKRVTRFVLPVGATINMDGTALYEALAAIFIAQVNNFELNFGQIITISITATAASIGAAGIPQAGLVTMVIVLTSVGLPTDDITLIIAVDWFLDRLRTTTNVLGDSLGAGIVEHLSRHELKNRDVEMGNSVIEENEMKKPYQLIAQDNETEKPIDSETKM
T1 sequence (P43004 whole entry): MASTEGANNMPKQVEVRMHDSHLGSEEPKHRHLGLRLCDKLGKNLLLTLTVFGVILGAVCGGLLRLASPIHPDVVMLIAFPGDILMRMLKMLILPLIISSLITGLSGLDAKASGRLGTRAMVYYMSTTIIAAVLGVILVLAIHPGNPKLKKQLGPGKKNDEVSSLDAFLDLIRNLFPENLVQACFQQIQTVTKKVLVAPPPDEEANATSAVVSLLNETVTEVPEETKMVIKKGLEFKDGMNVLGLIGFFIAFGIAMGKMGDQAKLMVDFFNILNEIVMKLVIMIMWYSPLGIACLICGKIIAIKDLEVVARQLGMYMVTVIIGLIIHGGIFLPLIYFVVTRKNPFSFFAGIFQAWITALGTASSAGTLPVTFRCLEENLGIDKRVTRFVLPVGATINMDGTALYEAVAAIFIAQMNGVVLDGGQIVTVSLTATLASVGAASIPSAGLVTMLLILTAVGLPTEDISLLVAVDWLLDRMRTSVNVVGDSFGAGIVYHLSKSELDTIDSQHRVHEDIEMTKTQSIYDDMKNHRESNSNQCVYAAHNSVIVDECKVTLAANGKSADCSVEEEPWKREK

Regarding `O=C(O)[C@H]1NC[C@@H](OCc2ccc(-c3ccccc3)cc2)[C@@H]1O` [14e], the half-inhibitory concentration (IC50) at SLC1A2 (EAAT2) was 1200 nM; on SLC1A1 (EAAT3), 19500 nM and 25300 nM; on SLC1A3 (EAAT1), 1750 nM and 2450 nM. Further, at SLC1A5, the “[3H]L-alanine exchange” value is “No exchange was detected”.

The values are drawn from paper PMC11123841, “Discovery and Synthesis of Hydroxy-L-Proline Blockers of the Neutral Amino Acid Transporters SLC1A4 (ASCT1) and SLC1A5 (ASCT2)” (Molecules, 2024).
